Measured values taken from patent EP0227818B1, “ANTIGLAUCOMA COMPOSITIONS” (SCHERING CORPORATION, priority 1985, dated 1987).

Legend:
[1] = Gross examination of cornea, iris, conjunctivae and pupil diameter for ocular irritation in the IOP study; assay type: in vivo, Male New Zealand white rabbits; conditions: rabbits, topical ocular dosing
Source text: Prior to drug administration and at each IOP determination, the cornea, iris, and conjunctivae were grossly examined for signs of irritation. Pupil diameter was also examined but detailed measurements were not made.

[2] = system: intraocular pressure (IOP); assay: Intraocular pressure (IOP) lowering in conscious normotensive rabbits after topical dosing, applanation tonometer; assay type: in vivo, Male New Zealand white rabbits; conditions: 0.5% Timolol alone (plus 50 µl vehicle 1), 50 µl topical to left eye, mean ± SEM; statistically significant vs placebo; concentration giving maximum IOP reduction with timolol alone
Method: Food and water were allowed ad libitum. The rabbits were maintained on a light cycle of 12 h darkness (7 PM to 7 AM) followed by 12 h of light. Animals were conditioned to their handlers and the laboratory setting and IOP measurements for at least one 4 h period before being used to study drug effects.
Rabbits were restrained in a cloth sack approximately 2 min prior to IOP determinations. The left lower eyelid was retracted forming a pouch and 1 drop of the local anesthetic proparacaine (0.05% w/v) was irrigated over the cornea. The eyelid was then held closed over the eye about 1 min. IOP was usually monitored 1 h before dosing, at zero time (immediately prior to dosing), and hourly for the next 4 h. Only rabbits with IOP's of 18-23 mmHg and showing no sign of ocular irritation were used in drug studies.
IOP, in mmHg, was determined in triplicate with a McKag-Marg applanation tonometer and the average reading was recorded. The tonometer had previously been calibrated against direct manometric determination of IOP in living eyes of barbiturate-anesthetized rabbits. Internal calibration signals of the McKay-Marg unit were checked after every eight readings or less. […]
The data (mean I SEM) were analyzed using analysis of variance and Dunnett's or Duncan's comparisons and are expressed as peak changes in IOP. […]

CC(C)(C)NC[C@H](O)COc1nsnc1N1CCOCC1 [Timolol, 1-[(1,1-dimethylethyl)amino]-3-[(4-morpholinyl-1,2,5-thiadiazol-3-yl)-oxy]-2-propanol]
signs of acute ocular irritation ([1]; all concentrations tested): None | Pupillary diameters ([1]; examined, detailed measurements not made): not affected | Peak Change in IOP [2]: -3.0±0.4^(1) mmHg
